The values below come from patent USRE30451E, “Novel process for producing antibiotics bleomycin” (priority 1969, dated 1980).

Series [1] deals with Ehrlich ascites carcinoma cells. As to conditions: maximum dose level at which mice survive 100 to 200 percent of control survival days; intraperitoneally once a day for 10 days, doses 25 mg/kg to 0.19 mg/kg.
For series [2] the following is noted: tumour-inoculated ICR/JCL mice, intraperitoneally once a day for 10 days, doses 25 mg/kg to 0.19 mg/kg, Behres-Karber's method, observed up to 50 days.

In turn, `Cc1c(N)nc(C(CC(N)=O)NCC(N)C(N)=O)nc1C(=O)NC(C(=O)NC(C)C(O)C(C)C(=O)NC(C(=O)NCCc1nc(-c2nc(C(=O)NCCc3cnc[nH]3)cs2)cs1)C(C)O)C(OC1OC(CO)C(O)C(O)C1OC1OC(CO)C(O)C(OC(N)=O)C1O)c1cnc[nH]1` (centres unmarked) [Compound 42, 2-(4-imidazolyl)-ethylamino-bleomycin] yielded an ED50 in series [1] of 0.78.
In series [1], `Cc1c(N)nc(C(CC(N)=O)NCC(N)C(N)=O)nc1C(=O)NC(C(=O)NC(C)C(O)C(C)C(=O)NC(C(=O)NCCc1nc(-c2nc(C(=O)NCCCN3CCOCC3)cs2)cs1)C(C)O)C(OC1OC(CO)C(O)C(O)C1OC1OC(CO)C(O)C(OC(N)=O)C1O)c1cnc[nH]1` (centres unmarked) [Compound 26, 3-(morpholino)-propylamoni-bleomycin] gave an ED50 of 0.78.
In turn, `Cc1c(N)nc(C(CC(N)=O)NCC(N)C(N)=O)nc1C(=O)NC(C(=O)NC(C)C(O)C(C)C(=O)NC(C(=O)NCCc1nc(-c2nc(C(=O)NCCCNCCCNC3CCCCC3)cs2)cs1)C(C)O)C(OC1OC(CO)C(O)C(O)C1OC1OC(CO)C(O)C(OC(N)=O)C1O)c1cnc[nH]1` (centres unmarked) [Compound 39, 3-(3-cyclohexylaminopropyl)-aminopropylamino bleomycin] displayed an ED50 in series [1] of 0.19.
`Cc1c(N)nc(C(CC(N)=O)NCC(N)C(N)=O)nc1C(=O)NC(C(=O)NC(C)C(O)C(C)C(=O)NC(C(=O)NCCc1nc(-c2nc(C(=O)NCCCNC3CCCCC3)cs2)cs1)C(C)O)C(OC1OC(CO)C(O)C(O)C1OC1OC(CO)C(O)C(OC(N)=O)C1O)c1cnc[nH]1` (centres unmarked) [Compound 38, 3-cyclohexylaminopropylamino-bleomycin]: the ED50 in series [1] was 0.39.
Same read-out and setting: in the case of `Cc1c(N)nc(C(CC(N)=O)NCC(N)C(N)=O)nc1C(=O)NC(C(=O)NC(C)C(O)C(C)C(=O)NC(C(=O)NCCc1nc(-c2nc(C(=O)NCCN(C)C)cs2)cs1)C(C)O)C(OC1OC(CO)C(O)C(O)C1OC1OC(CO)C(O)C(OC(N)=O)C1O)c1cnc[nH]1` (centres unmarked) [Compound 9, 3-N,N-dimethylaminoethylamino-bleomycin] it was 0.39.
In turn, `Cc1c(N)nc(C(CC(N)=O)NCC(N)C(N)=O)nc1C(=O)NC(C(=O)NC(C)C(O)C(C)C(=O)NC(C(=O)NCCc1nc(-c2nc(C(=O)NCC(C)N)cs2)cs1)C(C)O)C(OC1OC(CO)C(O)C(O)C1OC1OC(CO)C(O)C(OC(N)=O)C1O)c1cnc[nH]1` (centres unmarked) [Compound 16, 2-aminopropylamino-bleomycin] returned an ED50 in series [1] of 0.39.
As for `Cc1c(N)nc(C(CC(N)=O)NCC(N)C(N)=O)nc1C(=O)NC(C(=O)NC(C)C(O)C(C)C(=O)NC(C(=O)NCCc1nc(-c2nc(C(=O)NCCCNCCCN3CCOCC3)cs2)cs1)C(C)O)C(OC1OC(CO)C(O)C(O)C1OC1OC(CO)C(O)C(OC(N)=O)C1O)c1cnc[nH]1` (centres unmarked) [Compound 31, 3-(3-morpholinopropyl)-aminopropylamino-bleomycin], the ED50 in series [1] is listed as 0.19.
As for `Cc1c(N)nc(C(CC(N)=O)NCC(N)C(N)=O)nc1C(=O)NC(C(=O)NC(C)C(O)C(C)C(=O)NC(C(=O)NCCc1nc(-c2nc(C(=O)NCCCN(C)C)cs2)cs1)C(C)O)C(OC1OC(CO)C(O)C(O)C1OC1OC(CO)C(O)C(OC(N)=O)C1O)c1cnc[nH]1` (centres unmarked) [Compound 19, 3-(N,N-dimethyl)-aminopropylamino-bleomycin], the ED50 in series [1] turned out to be 0.39.
In turn, `Cc1c(N)nc(C(CC(N)=O)NCC(N)C(N)=O)nc1C(=O)NC(C(=O)NC(C)C(O)C(C)C(=O)NC(C(=O)NCCc1nc(-c2nc(C(=O)NCCCNCCCNC(C)c3ccccc3)cs2)cs1)C(C)O)C(OC1OC(CO)C(O)C(O)C1OC1OC(CO)C(O)C(OC(N)=O)C1O)c1cnc[nH]1` (centres unmarked) [Compound 15] returned an ED50 in series [1] of 0.39. Further, the LD50 in series [2] stood at 13.1.
In series [1], `Cc1c(N)nc(C(CC(N)=O)NCC(N)C(N)=O)nc1C(=O)NC(C(=O)NC(C)C(O)C(C)C(=O)NC(C(=O)NCCc1nc(-c2nc(C(=O)NCCCN(C)CCCN)cs2)cs1)C(C)O)C(OC1OC(CO)C(O)C(O)C1OC1OC(CO)C(O)C(OC(N)=O)C1O)c1cnc[nH]1` (centres unmarked) [Compound 22, 3-[N-methyl-N-(3-aminopropyl)]-aminopropylamino-bleomycin] came in with an ED50 of 0.19.
Molecule `Cc1c(N)nc(C(CC(N)=O)NCC(N)C(N)=O)nc1C(=O)NC(C(=O)NC(C)C(O)C(C)C(=O)NC(C(=O)NCCc1nc(-c2nc(C(=O)NCCCN3CCCC3)cs2)cs1)C(C)O)C(OC1OC(CO)C(O)C(O)C1OC1OC(CO)C(O)C(OC(N)=O)C1O)c1cnc[nH]1` (centres unmarked) [Compound 24, 3-(pyrrolidino)-propylamino-bleomycin] displayed an ED50 in series [1] of 0.39.
The molecule `CCCCNCCCNCCCNC(=O)c1csc(-c2csc(CCNC(=O)C(NC(=O)C(C)C(O)C(C)NC(=O)C(NC(=O)c3nc(C(CC(N)=O)NCC(N)C(N)=O)nc(N)c3C)C(OC3OC(CO)C(O)C(O)C3OC3OC(CO)C(O)C(OC(N)=O)C3O)c3cnc[nH]3)C(C)O)n2)n1` (centres unmarked) [Compound 12, 3-(3-N-butyl-aminopropyl)-aminopropylamino-bleomycin] registered an ED50 in series [1] of 0.19.
In series [1], `Cc1c(N)nc(C(CC(N)=O)NCC(N)C(N)=O)nc1C(=O)NC(C(=O)NC(C)C(O)C(C)C(=O)NC(C(=O)NCCc1nc(-c2nc(C(=O)NCCC[N+](C)(C)C)cs2)cs1)C(C)O)C(OC1OC(CO)C(O)C(O)C1OC1OC(CO)C(O)C(OC(N)=O)C1O)c1cnc[nH]1` (centres unmarked) [Compound 20, 3-(N,N,N-trimethyl)-aminopropylamino-bleomycin] came in with an ED50 of 0.19.
In turn, `Cc1c(N)nc(C(CC(N)=O)NCC(N)C(N)=O)nc1C(=O)NC(C(=O)NC(C)C(O)C(C)C(=O)NC(C(=O)NCCc1nc(-c2nc(C(=O)NCCCN3CCCCC3)cs2)cs1)C(C)O)C(OC1OC(CO)C(O)C(O)C1OC1OC(CO)C(O)C(OC(N)=O)C1O)c1cnc[nH]1` (centres unmarked) [Compound 25, 3-(piperidino)-propylamino-bleomycin] yielded an ED50 in series [1] of 0.39.
Still for that read-out and setting: in the case of `Cc1c(N)nc([C@H](CC(N)=O)NC[C@H](N)C(N)=O)nc1C(=O)N[C@H](C(=O)N[C@H](C)[C@@H](O)[C@H](C)C(=O)N[C@H](C(=O)NCCc1nc(-c2nc(C(=O)NCCC[S+](C)C)cs2)cs1)[C@@H](C)O)[C@@H](O[C@@H]1O[C@@H](CO)[C@@H](O)[C@H](O)[C@@H]1O[C@H]1O[C@H](CO)[C@@H](O)[C@H](OC(N)=O)[C@@H]1O)c1c[nH]cn1.[Br-]` [Compound 1, Bleomycin A2, reference compound] it was 0.78; in that of `Cc1c(N)nc(C(CC(N)=O)NCC(N)C(N)=O)nc1C(=O)NC(C(=O)NC(C)C(O)C(C)C(=O)NC(C(=O)NCCc1nc(-c2nc(C(=O)NCCNCC(C)O)cs2)cs1)C(C)O)C(OC1OC(CO)C(O)C(O)C1OC1OC(CO)C(O)C(OC(N)=O)C1O)c1cnc[nH]1` (centres unmarked) [Compound 13, 2-(2-hydroxypropyl)-aminoethylamino-bleomycin], 0.39; in that of `Cc1c(N)nc(C(CC(N)=O)NCC(N)C(N)=O)nc1C(=O)NC(C(=O)NC(C)C(O)C(C)C(=O)NC(C(=O)NCCc1nc(-c2nc(C(=O)NCCCNCCCN3CCCCC3)cs2)cs1)C(C)O)C(OC1OC(CO)C(O)C(O)C1OC1OC(CO)C(O)C(OC(N)=O)C1O)c1cnc[nH]1` (centres unmarked) [Compound 30, 3-(3-piperidinopropyl)-aminopropylamino-bleomycin], 0.39.
`Cc1c(N)nc(C(CC(N)=O)NCC(N)C(N)=O)nc1C(=O)NC(C(=O)NC(C)C(O)C(C)C(=O)NC(C(=O)NCCc1nc(-c2nc(C(=O)NCCCNCCCN3CCCC3)cs2)cs1)C(C)O)C(OC1OC(CO)C(O)C(O)C1OC1OC(CO)C(O)C(OC(N)=O)C1O)c1cnc[nH]1` (centres unmarked) [Compound 29, 3-(3-pyrrolidinopropyl)-aminopropylamino-bleomycin] yielded an ED50 in series [1] of 0.09.
Take `CNCCCNC(=O)c1csc(-c2csc(CCNC(=O)C(NC(=O)C(C)C(O)C(C)NC(=O)C(NC(=O)c3nc(C(CC(N)=O)NCC(N)C(N)=O)nc(N)c3C)C(OC3OC(CO)C(O)C(O)C3OC3OC(CO)C(O)C(OC(N)=O)C3O)c3cnc[nH]3)C(C)O)n2)n1` (centres unmarked) [Compound 17, 3-N-methylaminopropylamino-bleomycin]: in series [1], the ED50 stood at 0.19.
`Cc1c(N)nc(C(CC(N)=O)NCC(N)C(N)=O)nc1C(=O)NC(C(=O)NC(C)C(O)C(C)C(=O)NC(C(=O)NCCc1nc(-c2nc(C(=O)NCCCNCCCO)cs2)cs1)C(C)O)C(OC1OC(CO)C(O)C(O)C1OC1OC(CO)C(O)C(OC(N)=O)C1O)c1cnc[nH]1` (centres unmarked) [Compound 32, 3-(3-hydroxypropyl)-aminopropylamino-bleomycin] yielded an ED50 in series [1] of 0.19.
On to `Cc1c(N)nc(C(CC(N)=O)NCC(N)C(N)=O)nc1C(=O)NC(C(=O)NC(C)C(O)C(C)C(=O)NC(C(=O)NCCc1nc(-c2nc(C(=O)NCCCN3CCNCC3)cs2)cs1)C(C)O)C(OC1OC(CO)C(O)C(O)C1OC1OC(CO)C(O)C(OC(N)=O)C1O)c1cnc[nH]1` (centres unmarked) [Compound 14, 3-(piperazino)propylamino-bleomycin], for which the ED50 in series [1] turned out to be 0.39.
The same measure, in the same setting: in the case of `CO[C@@]12[C@H](COC(N)=O)C3=C(C(=O)C(C)=C(N)C3=O)N1C[C@@H]1N[C@@H]12` [Mytomycin C, reference compound] it was 0.39; in that of `Cc1c(N)nc(C(CC(N)=O)NCC(N)C(N)=O)nc1C(=O)NC(C(=O)NC(C)C(O)C(C)C(=O)NC(C(=O)NCCc1nc(-c2nc(C(=O)NCCCN3CCN(CCCN)CC3)cs2)cs1)C(C)O)C(OC1OC(CO)C(O)C(O)C1OC1OC(CO)C(O)C(OC(N)=O)C1O)c1cnc[nH]1` (centres unmarked) [Compound 28, 3-[1-{4-(3-aminopropyl)}-piperazino]propylamino-bleomycin], 0.19; in that of `Cc1c(N)nc(C(CC(N)=O)NCC(N)C(N)=O)nc1C(=O)NC(C(=O)NC(C)C(O)C(C)C(=O)NC(C(=O)NCCc1nc(-c2nc(C(=O)NCC3CCNCC3)cs2)cs1)C(C)O)C(OC1OC(CO)C(O)C(O)C1OC1OC(CO)C(O)C(OC(N)=O)C1O)c1cnc[nH]1` (centres unmarked) [Compound 41, 4-piperidylmethylamino-bleomycin], 0.78.
In series [1], `CCN(CC)CCCNC(=O)c1csc(-c2csc(CCNC(=O)C(NC(=O)C(C)C(O)C(C)NC(=O)C(NC(=O)c3nc(C(CC(N)=O)NCC(N)C(N)=O)nc(N)c3C)C(OC3OC(CO)C(O)C(O)C3OC3OC(CO)C(O)C(OC(N)=O)C3O)c3cnc[nH]3)C(C)O)n2)n1` (centres unmarked) [Compound 11, 3,-N,N-diethylaminopropylamino-bleomycin] gave an ED50 of 0.19.
